From US9777003B2, “Tricyclic heterocycles as bet protein inhibitors” (Incyte Corporation, priority 2013, dated 2017) come the findings set out here.

Where a name gives a salt, the structure may show the parent alone.

For orientation: IC50 means the concentration needed to halve the response being measured.

One experiment concerns the target BRD4-BD1 (Homo sapiens (Human), UniProt O60885). Briefly: BRD4 AlphaScreen assay, BRD4-BD1. The settings on record: biotin-labeled tetra-acetylated histone H4 peptide, 75 min, room temperature, read-out: BRD4 BD-1 enzyme IC50. Format: binding. The method, boiled down:
(§1)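 AlphaScreen displacement of 50 nM biotin-tetra-acetylated H4 peptide from 3.8 nM BRD4-BD1 (1.25% DMSO) or 20 nM BRD4-BD2 (0.83% DMSO) in HEPES pH 7.4 buffer, 75 min RT. Streptavidin donor/GSH acceptor beads added, 75 min dark; IC50 from log-concentration curve fit.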

For a further experiment, the target named is BRD4-BD2 (Homo sapiens (Human), UniProt O60885). Nature of the experiment: BRD4 AlphaScreen assay, BRD4-BD2. Particulars: biotin-labeled tetra-acetylated histone H4 peptide, 75 min, room temperature, read-out: BRD4 BD-2 enzyme IC50. Format: binding. The method, boiled down:
as §1
In general terms: Alpha assays give light when donor and acceptor beads are brought close together.

For `CCC(=O)N1CC(n2ccc(-c3cc4c(ccc5nnc(C)n54)n3Cc3cccc(Cl)c3)n2)C1` [Example 163, 6-(3-Chlorobenzyl)-1-methyl-7-[1-(1-propionylazetidin-3-yl)-1H-pyrazol-3-yl]-6H-pyrrolo[2,3-e][1,2,4]triazolo[4,3-a]pyridine Trifluoroacetate Salt], the IC50 on BRD4-BD1 and on BRD4-BD2 was ≤ 100 nM in each case.
In the case of `Cc1nnc2ccc3c(cc(-c4ccn(C5CN(C(=O)C6CC6)C5)n4)n3Cc3cccc(Cl)c3)n12` [Example 164, 6-(3-Chlorobenzyl)-7-{1-[1-(cyclopropylcarbonyl)azetidin-3-yl]-1H-pyrazol-3-yl}-1-methyl-6H-pyrrolo[2,3-e][1,2,4]triazolo[4,3-a]pyridine Trifluoroacetate Salt], the IC50 at BRD4-BD1 and on BRD4-BD2 was ≤ 100 nM each time.
For the molecule `Cc1nnc2ccc3c(cc(-c4ccn(C5CN(S(=O)(=O)C6CC6)C5)n4)n3Cc3cccc(Cl)c3)n12` [Example 165, 6-(3-Chlorobenzyl)-7-{1-[1-(cyclopropylsulfonyl)azetidin-3-yl]-1H-pyrazol-3-yl}-1-methyl-6H-pyrrolo[2,3-e][1,2,4]triazolo[4,3-a]pyridine Trifluoroacetate Salt], the IC50 on BRD4-BD1 and at BRD4-BD2 was ≤ 100 nM each time.
On to `CCS(=O)(=O)N1CC(n2ccc(-c3cc4c(ccc5nnc(C)n54)n3Cc3cccc(Cl)c3)n2)C1` [Example 166, 6-(3-Chlorobenzyl)-7-{1-[1-(ethylsulfonyl)azetidin-3-yl]-1H-pyrazol-3-yl}-1-methyl-6H-pyrrolo[2,3-e][1,2,4]triazolo[4,3-a]pyridine Trifluoroacetate Salt], for which the IC50 at BRD4-BD1 and at BRD4-BD2 was ≤ 100 nM in each case.
In the case of `CCOC(=O)N1CC(n2ccc(-c3cc4c(ccc5nnc(C)n54)n3Cc3cccc(Cl)c3)n2)C1` [Example 167, Ethyl 3-{3-[6-(3-chlorobenzyl)-1-methyl-6H-pyrrolo[2,3-e][1,2,4]triazolo[4,3-a]pyridin-7-yl]-1H-pyrazol-1-yl}azetidine-1-carboxylate Trifluoroacetate Salt], the IC50 on BRD4-BD1 and at BRD4-BD2 was ≤ 100 nM throughout.
As for `Cc1nnc2ccc3c(cc(-c4ccn(CCC(=O)NC5COC5)n4)n3Cc3cccc(Cl)c3)n12` [Example 168, 3-{3-[6-(3-Chlorobenzyl)-1-methyl-6H-pyrrolo[2,3-e][1,2,4]triazolo[4,3-a]pyridin-7-yl]-1H-pyrazol-1-yl}-N-oxetan-3-ylpropanamide Trifluoroacetate Salt], the IC50 at BRD4-BD1 and on BRD4-BD2 was ≤ 100 nM in each case.
As for `Cc1nnc2ccc3c(cc(-c4ccn(CCC(=O)N5CCOCC5)n4)n3Cc3cccc(Cl)c3)n12` [Example 169, 6-(3-Chlorobenzyl)-1-methyl-7-[1-(3-morpholin-4-yl-3-oxopropyl)-1H-pyrazol-3-yl]-6H-pyrrolo[2,3-e][1,2,4]triazolo[4,3-a]pyridine Trifluoroacetate Salt], the IC50 on BRD4-BD1 and at BRD4-BD2 was ≤ 100 nM each time.
Turning to `Cc1nnc2ccc3c(cc(-c4ccn(CCC(=O)NC5CCOCC5)n4)n3Cc3cccc(Cl)c3)n12` [Example 170, 3-{3-[6-(3-Chlorobenzyl)-1-methyl-6H-pyrrolo[2,3-e][1,2,4]triazolo[4,3-a]pyridin-7-yl]-1H-pyrazol-1-yl}-N-(tetrahydro-2H-pyran-4-yl)propanamide Trifluoroacetate Salt], the IC50 on BRD4-BD1 and at BRD4-BD2 was ≤ 100 nM each time.
Regarding `Cc1nnc2ccc3c(cc(-c4ccn(CCC(=O)NC5CN(C)C5)n4)n3Cc3cccc(Cl)c3)n12` [Example 171, 3-{3-[6-(3-Chlorobenzyl)-1-methyl-6H-pyrrolo[2,3-e][1,2,4]triazolo[4,3-a]pyridin-7-yl]-1H-pyrazol-1-yl}-N-(1-methylazetidin-3-yl)propanamide bis(trifluoroacetate) Salt], the IC50 at BRD4-BD1 and on BRD4-BD2 was ≤ 100 nM throughout.
As for `Cc1nnc2ccc3c(cc(-c4c[nH]cn4)n3Cc3cccc(Cl)c3)n12` [Example 172, 6-(3-Chlorobenzyl)-7-(1H-imidazol-4-yl)-1-methyl-6H-pyrrolo[2,3-e][1,2,4]triazolo[4,3-a]pyridine bis(trifluoroacetate) Salt], the IC50 at BRD4-BD1 and on BRD4-BD2 was ≤ 100 nM throughout.
Turning to `Cc1nnc2ccc3c(cc(-c4ccn(CCCO)n4)n3Cc3cccc(Cl)c3)n12` [Example 173, 3-{3-[6-(3-Chlorobenzyl)-1-methyl-6H-pyrrolo[2,3-e][1,2,4]triazolo[4,3-a]pyridin-7-yl]-1H-pyrazol-1-yl}propan-1-ol Trifluoroacetate Salt], the IC50 at BRD4-BD1 and on BRD4-BD2 was ≤ 100 nM each time.
Consider `CNC(=O)CCn1ccc(-c2cc3c(ccc4nnc(C)n43)n2Cc2cccc(Cl)c2)n1` [Example 174, 3-{3-[6-(3-Chlorobenzyl)-1-methyl-6H-pyrrolo[2,3-e][1,2,4]triazolo[4,3-a]pyridin-7-yl]-1H-pyrazol-1-yl}-N-methylpropanamide Trifluoroacetate Salt], for which the IC50 on BRD4-BD1 and on BRD4-BD2 was ≤ 100 nM in each case.
With `CCNC(=O)CCn1ccc(-c2cc3c(ccc4nnc(C)n43)n2Cc2cccc(Cl)c2)n1` [Example 175, 3-{3-[6-(3-Chlorobenzyl)-1-methyl-6H-pyrrolo[2,3-e][1,2,4]triazolo[4,3-a]pyridin-7-yl]-1H-pyrazol-1-yl}-N-ethylpropanamide Trifluoroacetate Salt], the IC50 at BRD4-BD1 and at BRD4-BD2 was ≤ 100 nM each time.
For the molecule `Cc1nnc2ccc3c(cc(-c4ccn(CCC(=O)NC(C)(C)C)n4)n3Cc3cccc(Cl)c3)n12` [Example 176, N-(tert-Butyl)-3-{3-[6-(3-chlorobenzyl)-1-methyl-6H-pyrrolo[2,3-e][1,2,4]triazolo[4,3-a]pyridin-7-yl]-1H-pyrazol-1-yl}propanamide Trifluoroacetate Salt], the concentration for half-maximal inhibition (IC50) on BRD4-BD1 and at BRD4-BD2 was ≤ 100 nM each time.
In the case of `Cc1nnc2ccc3c(cc(-c4ccn(C5COC5)n4)n3Cc3cccc(Cl)c3)n12` [Example 177, 6-(3-Chlorobenzyl)-1-methyl-7-(1-oxetan-3-yl-1H-pyrazol-3-yl)-6H-pyrrolo[2,3-e][1,2,4]triazolo[4,3-a]pyridine Trifluoroacetate Salt], the IC50 on BRD4-BD1 and at BRD4-BD2 was ≤ 100 nM throughout.
As to `Cc1nnc2ccc3c(cc(-c4ccn(CCO)n4)n3Cc3cccc(Cl)c3)n12` [Example 178, 2-{3-[6-(3-Chlorobenzyl)-1-methyl-6H-pyrrolo[2,3-e][1,2,4]triazolo[4,3-a]pyridin-7-yl]-1H-pyrazol-1-yl}ethanol Trifluoroacetate Salt], the IC50 on BRD4-BD1 and at BRD4-BD2 was ≤ 100 nM throughout.
With `Cc1nnc2ccc3c(cc(-c4ccn(C5CN(CCO)C5)n4)n3Cc3cccc(Cl)c3)n12` [Example 179, 2-(3-{3-[6-(3-Chlorobenzyl)-1-methyl-6H-pyrrolo[2,3-e][1,2,4]triazolo[4,3-a]pyridin-7-yl]-1H-pyrazol-1-yl}azetidin-1-yl)ethanol bis(trifluoroacetate) Salt], the IC50 at BRD4-BD1 and on BRD4-BD2 was ≤ 100 nM in each case.
On to `Cc1nnc2ccc3c(cc(-c4ccn(C5CN(CCC#N)C5)n4)n3Cc3cccc(Cl)c3)n12` [Example 181, 3-(3-{3-[6-(3-Chlorobenzyl)-1-methyl-6H-pyrrolo[2,3-e][1,2,4]triazolo[4,3-a]pyridin-7-yl]-1H-pyrazol-1-yl}azetidin-1-yl)propanenitrile bis(trifluoroacetate) Salt], for which the concentration for half-maximal inhibition (IC50) on BRD4-BD1 and at BRD4-BD2 was ≤ 100 nM in each case.
Take `Cc1nnc2ccc3c(cc(-c4ccn(CCC#N)n4)n3Cc3cccc(CN4CCC4)c3)n12` [Example 183, 3-(3-{6-[3-(Azetidin-1-ylmethyl)benzyl]-1-methyl-6H-pyrrolo[2,3-e][1,2,4]triazolo[4,3-a]pyridin-7-yl}-1H-pyrazol-1-yl)propanenitrile bis(trifluoroacetate) Salt]: the 50% inhibitory concentration (IC50) on BRD4-BD1 and on BRD4-BD2 was ≤ 100 nM each time.
As to `Cc1nnc2ccc3c(cc(-c4ccn(C)n4)n3Cc3cc(Cl)cc(CN4CCC4)c3)n12` [Example 185, 6-[3-(Azetidin-1-ylmethyl)-5-chlorobenzyl]-1-methyl-7-(1-methyl-1H-pyrazol-3-yl)-6H-pyrrolo[2,3-e][1,2,4]triazolo[4,3-a]pyridine tris(trifluoroacetate) Salt], the IC50 on BRD4-BD1 and at BRD4-BD2 was ≤ 100 nM each time.
With `CCn1ccc(-c2cc3c(ccc4nnc(C)n43)n2Cc2cc(Cl)cc(CN3CCC3)c2)n1` [Example 188, 6-(3-(Azetidin-1-ylmethyl)-5-chlorobenzyl)-7-(1-ethyl-1H-pyrazol-3-yl)-1-methyl-6H-pyrrolo[2,3-e][1,2,4]triazolo[4,3-a]pyridine tris(trifluoroacetate) Salt], the concentration for half-maximal inhibition (IC50) on BRD4-BD1 and at BRD4-BD2 was ≤ 100 nM in each case.
As to `CCn1ccc(-c2cc3c(ccc4nnc(C)n43)n2Cc2cc(Cl)cc(CN3CCCC3)c2)n1` [Example 189, 6-(3-Chloro-5-(pyrrolidin-1-ylmethyl)benzyl)-7-(1-ethyl-1H-pyrazol-3-yl)-1-methyl-6H-pyrrolo[2,3-e][1,2,4]triazolo[4,3-a]pyridine tris(trifluoroacetate) Salt], the IC50 at BRD4-BD1 and at BRD4-BD2 was ≤ 100 nM each time.
For `Cc1nnc2ccc3c(cc(-c4ccn(C)n4)n3Cc3cc(Cl)cc(CN4CCCC4)c3)n12` [Example 190, 6-[3-Chloro-5-(pyrrolidin-1-ylmethyl)benzyl]-1-methyl-7-(1-methyl-1H-pyrazol-3-yl)-6H-pyrrolo[2,3-e][1,2,4]triazolo[4,3-a]pyridine bis(trifluoroacetate) Salt], the 50% inhibitory concentration (IC50) at BRD4-BD1 and at BRD4-BD2 was ≤ 100 nM throughout.
